Laboratory results: patent publication US7514452B2, “2-furancarboxylic acid hydrazides and pharmaceutical compositions containing the same” (Dainippon Pharmaceutical Co., Ltd, priority 2002, dated 2009)

How the values were obtained:
glucagon receptor [1] = target: glucagon receptor (Mus musculus, UniProt Q61606); experiment: Experiment for glucagon binding inhibition, mouse hepatic membrane (125I-glucagon); settings: male ddY mouse hepatic membrane, 125I-glucagon 50 pM, 25° C. for 30 minutes; read-out: Glucagon binding inhibitory activity IC50 (nM) Mouse
Summary of the method: (§1)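 Liver membranes from male SD rats or male ddY mice were incubated with 125I-glucagon and compound for 30 min at 25 °C. Bound radioactivity was collected on filters washed with pH 7.2 Tris-HCl and counted by γ counter, in duplicate. IC50 was taken from a pseudo Hill plot.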

glucagon receptor [2] = target: glucagon receptor (Rattus norvegicus, UniProt P30082); experiment: Experiment for glucagon binding inhibition, rat hepatic membrane (125I-glucagon); settings: male SD rat hepatic membrane, 125I-glucagon 50 pM, 25° C. for 30 minutes; read-out: Glucagon binding inhibitory activity IC50 (nM) Rat
Summary of the method: as §1

Sequence of glucagon receptor (Mus musculus, UniProt Q61606) (Q61606 27-485): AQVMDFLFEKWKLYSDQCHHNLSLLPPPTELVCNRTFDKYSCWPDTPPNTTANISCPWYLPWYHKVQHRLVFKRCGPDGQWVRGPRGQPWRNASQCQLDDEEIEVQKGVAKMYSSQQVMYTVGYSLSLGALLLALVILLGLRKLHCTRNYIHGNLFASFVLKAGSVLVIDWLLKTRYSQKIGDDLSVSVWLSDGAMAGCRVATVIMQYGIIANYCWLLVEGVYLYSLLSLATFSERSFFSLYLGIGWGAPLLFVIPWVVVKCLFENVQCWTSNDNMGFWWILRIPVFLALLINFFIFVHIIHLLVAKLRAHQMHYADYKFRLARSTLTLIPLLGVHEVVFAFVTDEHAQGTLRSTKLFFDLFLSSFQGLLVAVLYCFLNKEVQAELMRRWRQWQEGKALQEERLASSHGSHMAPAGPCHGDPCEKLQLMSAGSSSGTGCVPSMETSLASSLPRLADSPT
Sequence of glucagon receptor (Rattus norvegicus, UniProt P30082) (P30082 27-485): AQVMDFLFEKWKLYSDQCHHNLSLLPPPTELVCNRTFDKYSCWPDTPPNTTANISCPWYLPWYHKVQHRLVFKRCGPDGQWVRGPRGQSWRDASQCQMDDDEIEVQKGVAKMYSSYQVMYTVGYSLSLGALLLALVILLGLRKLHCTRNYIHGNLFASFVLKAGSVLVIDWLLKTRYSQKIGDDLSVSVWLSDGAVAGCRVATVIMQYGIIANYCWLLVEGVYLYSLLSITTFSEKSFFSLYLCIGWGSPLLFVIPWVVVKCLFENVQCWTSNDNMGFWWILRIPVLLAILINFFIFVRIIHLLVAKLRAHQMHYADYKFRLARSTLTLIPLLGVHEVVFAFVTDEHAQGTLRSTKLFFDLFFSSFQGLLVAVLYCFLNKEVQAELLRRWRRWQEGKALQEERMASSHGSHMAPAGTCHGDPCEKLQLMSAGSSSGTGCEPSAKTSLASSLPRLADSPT

Compound	melting point [°C]	IC50 (glucagon receptor [1]) [nM]	IC50 (glucagon receptor [2]) [nM]
CCCCCOc1cccc(-c2ccoc2C(=O)NNC(=O)c2ccc(O)c([N+](=O)[O-])c2)c1 [Example 182, 3-(3-Pentyloxyphenyl)-2-furancarboxylic acid 2-(4-hydroxy-3-nitrobenzoyl)hydrazide]	96 to 99	50	49
CC(C)COc1cccc(-c2ccoc2C(=O)NNC(=O)c2ccc(O)c([N+](=O)[O-])c2)c1 [Example 183, 3-(3-Isobutoxyphenyl)-2-furancarboxylic acid 2-(4-hydroxy-3-nitrobenzoyl)hydrazide]	98 to 100	34	51
CCCCCCOc1cccc(-c2ccoc2C(=O)NNC(=O)c2ccc(O)c([N+](=O)[O-])c2)c1 [Example 184, 3-(3-Hexyloxyphenyl)-2-furancarboxylic acid 2-(4-hydroxy-3-nitrobenzoyl)hydrazide]	124 to 126	59	18
CCCCCCCOc1cccc(-c2ccoc2C(=O)NNC(=O)c2ccc(O)c([N+](=O)[O-])c2)c1 [Example 185, 3-(3-Heptyloxyphenyl)-2-furancarboxylic acid 2-(4-hydroxy-3-nitrobenzoyl)hydrazide]	141 to 144	23	20
CCCCCCc1cccc(-c2ccoc2C(=O)NNC(=O)c2ccc(O)c([N+](=O)[O-])c2)c1 [Example 188, 3-(3-Hexylphenyl)-2-furancarboxylic acid 2-(4-hydroxy-3-nitrobenzoyl)hydrazide]	87 to 89	28	26
O=C(NNC(=O)c1occc1-c1cccc(Cc2ccccc2)c1)c1ccc(O)c([N+](=O)[O-])c1 [Example 189, 3-(3-Benzylphenyl)-2-furancarboxylic acid 2-(4-hydroxy-3-nitrobenzoyl)hydrazide]	160 to 162	3	5.5
O=C(NNC(=O)c1occc1-c1ccccc1)c1ccc(O)c(C(F)(F)F)c1 [Example 193, 3-phenyl-2-furancarboxylic acid 2-(4-hydroxy-3-trifluoromethylbenzoyl)hydrazide]	117 to 121	350	330
CC(C)=CCOc1cccc(-c2ccoc2C(=O)NNC(=O)c2ccc(O)c([N+](=O)[O-])c2)c1 [Example 196, 3-[3-(3-Methyl-2-butenyloxy)phenyl]-2-furancarboxylic acid 2-(4-hydroxy-3-nitrobenzoyl)hydrazide]	84 to 85	63	40
C=C(C)COc1cccc(-c2ccoc2C(=O)NNC(=O)c2ccc(O)c([N+](=O)[O-])c2)c1 [Example 197, 3-[3-(2-Methyl-2-propenyloxy)phenyl]-2-furancarboxylic acid 2-(4-hydroxy-3-nitrobenzoyl)hydrazide]	127 to 129	56	37
CC=CCOc1cccc(-c2ccoc2C(=O)NNC(=O)c2ccc(O)c([N+](=O)[O-])c2)c1 [Example 198, 3-[3-(2-Butenyloxy)phenyl]-2-furancarboxylic acid 2-(4-hydroxy-3-nitrobenzoyl)hydrazide]	113 to 115	20	75
C=CCOc1cccc(-c2ccoc2C(=O)NNC(=O)c2ccc(O)c([N+](=O)[O-])c2)c1 [Example 199, 3-[3-(2-Allyloxy)phenyl]-2-furancarboxylic acid 2-(4-hydroxy-3-nitrobenzoyl)hydrazide]	126 to 131	75	99
O=C(NNC(=O)c1occc1-c1cccc(OCc2cccc3ccccc23)c1)c1ccc(O)c([N+](=O)[O-])c1 [Example 203]	152 to 153	7.7	7.9
O=C(NNC(=O)c1occc1-c1cccc(OCc2ccc3ccccc3c2)c1)c1ccc(O)c([N+](=O)[O-])c1 [Example 204]	198 to 199	5.4	3.6
O=C(NNC(=O)c1occc1-c1ccc2[nH]ccc2c1)c1ccc(O)c([N+](=O)[O-])c1 [Example 207]	129 to 131	9.5	8
Cn1ccc2cc(-c3ccoc3C(=O)NNC(=O)c3ccc(O)c([N+](=O)[O-])c3)ccc21 [Example 208]	185 to 187	270	290
O=C(NNC(=O)c1occc1-c1cccc(OCCc2ccccc2)c1)c1ccc(O)c([N+](=O)[O-])c1 [Example 209, 3-(3-phenethyloxyphenyl)-2-furancarboxylic acid 2-(4-hydroxy-3-nitrobenzoyl)hydrazide]	90 to 94	35	20
O=C(NNC(=O)c1occc1-c1ccc(Cc2ccccc2)cc1)c1ccc(O)c([N+](=O)[O-])c1 [Example 210, 3-(4-benzylphenyl)-2-furancarboxylic acid 2-(4-hydroxy-3-nitrobenzoyl)hydrazide]	154 to 157	7.9	3.9
Cc1ccc(COc2ccc(-c3ccoc3C(=O)NNC(=O)c3ccc(O)c([N+](=O)[O-])c3)cc2)cc1 [Example 211]	184 to 185	25	8.5
Cc1ccccc1COc1ccc(-c2ccoc2C(=O)NNC(=O)c2ccc(O)c([N+](=O)[O-])c2)cc1 [Example 213]	177 to 179	80	35
Cc1cccc(COc2ccc(-c3ccoc3C(=O)NNC(=O)c3ccc(O)c([N+](=O)[O-])c3)cc2)c1 [Example 214]	162 to 164	39	49

Further lines, results first:

melting point [°C]	IC50 (glucagon receptor [1]) [nM]	IC50 (glucagon receptor [2]) [nM]	Compound
135 to 139	37	60	O=C(NNC(=O)c1occc1-c1ccc2ccccc2c1)c1ccc(O)c([N+](=O)[O-])c1 [Example 217]
143 to 147	56	95	O=C(NNC(=O)c1occc1-c1cccc(-c2ccccc2)c1)c1ccc(O)c([N+](=O)[O-])c1 [Example 218]
174 to 176	42	25	O=C(NNC(=O)c1oc(Br)cc1-c1ccccc1)c1ccc(O)c([N+](=O)[O-])c1 [Example 222, 5-bromo-3-phenyl-2-furancarboxylic acid 2-(4-hydroxy-3-nitrobenzoyl)hydrazide]
178 to 180	26	12	Cc1cc(C)cc(COc2cccc(-c3ccoc3C(=O)NNC(=O)c3ccc(O)c([N+](=O)[O-])c3)c2)c1 [Example 223]
100 to 101	48	27	Cc1cccc(C)c1COc1cccc(-c2ccoc2C(=O)NNC(=O)c2ccc(O)c([N+](=O)[O-])c2)c1 [Example 224]
97 to 99	68	11	O=C(NNC(=O)c1occc1-c1cccc(Cc2ccccc2Cl)c1)c1ccc(O)c([N+](=O)[O-])c1 [Example 225]
87 to 89	31	21	CCOc1ccccc1Cc1cccc(-c2ccoc2C(=O)NNC(=O)c2ccc(O)c([N+](=O)[O-])c2)c1 [Example 226]
135 to 138	58	28	Cc1ccccc1Cc1cccc(-c2ccoc2C(=O)NNC(=O)c2ccc(O)c([N+](=O)[O-])c2)c1 [Example 229]
147 to 149	120	33	CC(c1ccccc1)c1cccc(-c2ccoc2C(=O)NNC(=O)c2ccc(O)c([N+](=O)[O-])c2)c1 (stereo not drawn) [Example 230]
149 to 152	34	38	O=C(NNC(=O)c1occc1-c1cccc(CCc2ccccc2)c1)c1ccc(O)c([N+](=O)[O-])c1 [Example 232]
102 to 104	56	39	COc1ccc(Cc2cccc(-c3ccoc3C(=O)NNC(=O)c3ccc(O)c([N+](=O)[O-])c3)c2)cc1 [Example 234]
149 to 151	18	49	Cc1cccc(Cc2cccc(-c3ccoc3C(=O)NNC(=O)c3ccc(O)c([N+](=O)[O-])c3)c2)c1 [Example 235]
120 to 123	180	300	Cc1ccc(-c2ccoc2C(=O)NNC(=O)c2ccc(O)c(C(F)(F)F)c2)cc1 [Example 240]
112 to 114	180	89	CCCc1ccc(-c2ccoc2C(=O)NNC(=O)c2ccc(O)c(C(F)(F)F)c2)cc1 [Example 242]
103 to 106	290	380	CCCCCOc1ccc(-c2ccoc2C(=O)NNC(=O)c2ccc(O)c(F)c2)cc1 [Example 243]
163 to 164	64	29	O=C(NNC(=O)c1occc1-c1ccc(OCc2ccccc2)cc1)c1ccc(O)c([N+](=O)[O-])c1 [Example 245]
